Experimental data reported in patent US6515122B1, “Tetracyclic benzimidazole derivatives and combinatorial libraries thereof” (Lion Bioscience AG, priority 1999, dated 2003).

test system: Streptococcus pyogenes (ATCC# 97-03 14289); assay: Anti-microbial screen (growth inhibition, OD 570 nm); assay type: cell-based; settings: ATCC97, compounds at 170 μg/ml, Todd Hewitt Broth, read at 4 hrs
Procedure: Streptococcus pyogenes (ATCC# 97-03 14289) were grown in Todd Hewitt Broth (THB) (Difco Laboratories #0492-17-6) overnight until they reached an optical density of (OD=0.636@ 570 nm) by reading 0.1 ml in a 96 well microtiter plate in a Molecular Devices Thermomax. This preparation was kept frozen as stocks in 30% v/v glycerol in 1.5 ml aliquots at −70 C° until used. Prior to screening, 1.5 ml aliquots were thawed and diluted into 50 ml THB. 200 μl of this dilution was added to 92 wells of microtiter plate. To three wells THB (200 μl) was added to serve as a blank and a sterility control. Test compounds in DMSO and appropriate concentrations of DMSO were added to Growth/Solvent Controls at 0 time. Plates were read at 0 time at 570 nm in the Molecular Devices plate reader to obtain compounds correction factors for insoluble or colored compounds. Plates were read again at 4 hrs.
Compounds were assayed at a concentration of 170 μg/ml. Percent inhibition for each compound was calculated using the following formulae:
Color correct=(O.D. 0 hr−Blank 0 hr)−(Solvent Control 0 hr−Blank 0 hr)
% Inhibition=100−(O.D. test compound 4 hr−Blank 4 hr−color correct) divided by (O.D. growth/solvent control 4 hr−Blank 4 hr)

| Structure (SMILES) | inhibition at 170 µg/mL [%] |
| --- | --- |
| CCN1CCCC1CNC(=O)c1ccc2c(c1)nc1n2CC(=O)Nc2ccc(NCCN3CCOCC3)cc2-1 (stereo not drawn) [6000#00002] | 96.3 |
| CCN1CCCC1CNC(=O)c1ccc2c(c1)nc1n2CC(=O)Nc2ccc(NCCN(C)C)cc2-1 (stereo not drawn) [6000#00007] | 95.2 |
| CCN1CCCC1CNC(=O)c1ccc2c(c1)nc1n2CC(=O)Nc2ccc(NCCCN3CCOCC3)cc2-1 (stereo not drawn) [6000#00010] | 95.7 |
| CCN1CCCC1CNC(=O)c1ccc2c(c1)nc1n2CC(=O)Nc2ccc(N(C)CCN(C)C)cc2-1 (stereo not drawn) [6000#00015] | 96.3 |
| O=C1Cn2c(nc3ccc(Cl)cc32)-c2cc(NC3CCCCCC3)ccc2N1 [6000#04048] | 95 |
| CC1CC(Nc2ccc3c(c2)-c2nc4ccc(Cl)cc4n2CC(=O)N3)CC(C)(C)C1 (stereo not drawn) [6000#04080] | 95.3 |
| CC1CCCCN1CCCNc1ccc2c(c1)-c1nc3ccc(Cl)cc3n1C(C)C(=O)N2 (stereo not drawn) [6000#08102] | 95.1 |
| CN(CCc1ccccc1)c1ccc2c(c1)-c1nc3cc(C(=O)NC4CC(C)(C)NC(C)(C)C4)ccc3n1[C@@H](CCC(N)=O)C(=O)N2 [6000#17560] | 98.6 |
| CC1(C)CC(NC(=O)c2ccc3c(c2)nc2n3[C@@H](CCC(N)=O)C(=O)Nc3ccc(NCc4cccc(C(F)(F)F)c4)cc3-2)CC(C)(C)N1 [6000#17584] | 97.2 |
| CN(C)CCN(C)c1ccc2c(c1)-c1nc3ccccc3n1[C@H](Cc1ccccc1)C(=O)N2 [6000#36335] | 100 |
| CN(C)CCN(C)c1ccc2c(c1)-c1nc3ccc(Cl)cc3n1[C@H](Cc1ccccc1)C(=O)N2 [6000#36655] | 96.8 |
| CN(C)CCCNc1ccc2c(c1)-c1nc3ccc(Cl)cc3n1[C@H](Cc1ccccc1)C(=O)N2 [6000#36687] | 96.1 |
| CN(C)CCCN(C)c1ccc2c(c1)-c1nc3cc(C(=O)N4CCC(C(N)=O)CC4)ccc3n1[C@@H](CC1CCCCC1)C(=O)N2 [6000#38375] | 95.1 |
| COCCN(CCOC)C(=O)c1ccc2c(c1)nc1n2[C@@H](CC2CCCCC2)C(=O)Nc2ccc(N(C)CCN(C)C)cc2-1 [6000#38735] | 96.7 |
| CSCCCNC(=O)c1ccc2c(c1)nc1n2[C@@H](CC2CCCCC2)C(=O)Nc2ccc(N(C)CCN(C)C)cc2-1 [6000#39135] | 98.1 |
| CN(C)CCCN(C)c1ccc2c(c1)-c1nc3cc(C(=O)NCCN4CCOCC4)ccc3n1[C@@H](CC1CCCCC1)C(=O)N2 [6000#39255] | 95.2 |
| CCOC(=O)CCNC(=O)c1ccc2c(c1)nc1n2[C@@H](Cc2ccc(Cl)cc2)C(=O)Nc2ccc(N(C)CCN(C)C)cc2-1 [6000#45135] | 97.8 |
| CN(C)CCCN(C)c1ccc2c(c1)-c1nc3cc(C(=O)NCCCN4CCCC4=O)ccc3n1[C@@H](Cc1ccc(Cl)cc1)C(=O)N2 [6000#46455] | 96.8 |
| COCCN(CCOC)C(=O)c1ccc2c(c1)nc1n2[C@@H](Cc2ccc(Cl)cc2)C(=O)Nc2ccc(N(C)CCN(C)C)cc2-1 [6000#46895] | 96.1 |
| CC(=O)NCCNC(=O)c1ccc2c(c1)nc1n2[C@@H](Cc2ccc(Cl)cc2)C(=O)Nc2ccc(NCCCN3CCCCC3C)cc2-1 (stereo partly drawn) [6000#47222] | 95.7 |
| CSCCCNC(=O)c1ccc2c(c1)nc1n2[C@@H](Cc2ccc(Cl)cc2)C(=O)Nc2ccc(N(C)CCCN(C)C)cc2-1 [6000#47335] | 96.2 |
| CN(C)CCN(C)c1ccc2c(c1)-c1nc3cc(C(F)(F)F)ccc3n1[C@@H](Cc1c[nH]c3ccccc13)C(=O)N2 [6000#52815] | 98.8 |
| CN(C)CCN(C)c1ccc2c(c1)-c1nc3cc(Br)ccc3n1[C@@H](CCCCNC(=O)C(F)(F)F)C(=O)N2 [6000#56655] | 97.8 |

| Structure (SMILES) | inhibition at 170 µg/mL [%] |
| --- | --- |
| CN(C)CCCNc1ccc2c(c1)-c1nc3cc(Br)ccc3n1C(CCCCNC(=O)C(F)(F)F)C(=O)N2 (stereo not drawn) [6000#56687] | 96.8 |
| CN(C)CCCN(C)c1ccc2c(c1)-c1nc3cc(Br)ccc3n1C(CCCCNC(=O)C(F)(F)F)C(=O)N2 (stereo not drawn) [6000#56695] | 95.8 |
| CCN(CC)CCN(C)c1ccc2c(c1)-c1nc3cc(C(F)(F)F)ccc3n1C(CCCCNC(=O)C(F)(F)F)C(=O)N2 (stereo not drawn) [6000#56919] | 95.8 |
| CN(C)CCCNc1ccc2c(c1)-c1nc3cc(C(F)(F)F)ccc3n1C(CCCCNC(=O)C(F)(F)F)C(=O)N2 (stereo not drawn) [6000#56927] | 96.3 |
| CN(C)CCCN(C)c1ccc2c(c1)-c1nc3cc(C(F)(F)F)ccc3n1C(CCCCNC(=O)C(F)(F)F)C(=O)N2 (stereo not drawn) [6000#56935] | 95.8 |
| CCN1CCCC1CNc1ccc2c(c1)-c1nc3cc(C(F)(F)F)ccc3n1C(CCCCNC(=O)C(F)(F)F)C(=O)N2 (stereo not drawn) [6000#56957] | 97.4 |
| CCOC(=O)C1CCN(c2ccc3c(c2)-c2nc4ccc(Cl)cc4n2C(CCCCNC(=O)C(F)(F)F)C(=O)N3)CC1 (stereo not drawn) [6000#57085] | 96.7 |
| CCOCCNc1ccc2c(c1)-c1nc3cc(C(=O)Nc4nccs4)ccc3n1C(CCCNC(=N)N)C(=O)N2 (stereo not drawn) [6000#57258] | 96.9 |
| CCCCNc1ccc2c(c1)-c1nc3cc(C(=O)NCCCCCC(=O)OC)ccc3n1C(CCCNC(=N)N)C(=O)N2 (stereo not drawn) [6000#57343] | 100 |
| CCOC(=O)CCNC(=O)c1ccc2c(c1)nc1n2C(CCCNC(=N)N)C(=O)Nc2ccc(NC3CCN(Cc4ccccc4)C3)cc2-1 (stereo not drawn) [6000#57389] | 97.3 |
| CCOC(=O)CCNC(=O)c1ccc2c(c1)nc1n2C(CCCNC(=N)N)C(=O)Nc2ccc(Sc3ccccn3)cc2-1 (stereo not drawn) [6000#57425] | 97.8 |
| CCCCNc1ccc2c(c1)-c1nc3cc(C(=O)N4CCCC4)ccc3n1C(CCCNC(=N)N)C(=O)N2 (stereo not drawn) [6000#57503] | 97.4 |
| CCN(CC)c1ccc2c(c1)-c1nc3cc(C(=O)N4CCCC4)ccc3n1C(CCCNC(=N)N)C(=O)N2 (stereo not drawn) [6000#57519] | 100 |
| CCN(CC)c1ccc2c(c1)-c1nc3cc(C(=O)N(C)C4CCN(C)CC4)ccc3n1C(CCCNC(=N)N)C(=O)N2 (stereo not drawn) [6000#57999] | 95.1 |
| CCCCNc1ccc2c(c1)-c1nc3cc(C(=O)NCCO)ccc3n1C(CCCNC(=N)N)C(=O)N2 (stereo not drawn) [6000#58223] | 97 |
| CCOC(=O)C1CCCN(C(=O)c2ccc3c(c2)nc2n3C(CCCNC(=N)N)C(=O)Nc3ccc(N(C)CCc4ccccn4)cc3-2)C1 (stereo not drawn) [6000#58414] | 98 |
| CCOC(=O)C1CCCN(C(=O)c2ccc3c(c2)nc2n3C(CCCNC(=N)N)C(=O)Nc3ccc(N4CCCC(C(=O)OCC)C4)cc3-2)C1 (stereo not drawn) [6000#58437] | 100 |
| CCOC(=O)C1CCN(c2ccc3c(c2)-c2nc4cc(C(=O)N5CCCC(C(=O)OCC)C5)ccc4n2C(CCCNC(=N)N)C(=O)N3)CC1 (stereo not drawn) [6000#58445] | 97 |
| CCOC(=O)C1CCCN(C(=O)c2ccc3c(c2)nc2n3C(CCCNC(=N)N)C(=O)Nc3ccc(N4CCSCC4)cc3-2)C1 (stereo not drawn) [6000#58475] | 99.1 |
| COCCN(CCOC)C(=O)c1ccc2c(c1)nc1n2C(CCCNC(=N)N)C(=O)Nc2ccc(N(C)Cc3ccccc3)cc2-1 (stereo not drawn) [6000#59152] | 97.2 |
| CCOC(=O)C1CCCN(c2ccc3c(c2)-c2nc4cc(C(=O)N5CCC(NC(C)=O)C5)ccc4n2C(CCCNC(=N)N)C(=O)N3)C1 (stereo not drawn) [6000#59317] | 96.6 |
| CCOC(=O)C1CCN(c2ccc3c(c2)-c2nc4cc(C(=O)N5CCC(NC(C)=O)C5)ccc4n2C(CCCNC(=N)N)C(=O)N3)CC1 (stereo not drawn) [6000#59325] | 95.2 |
